# Experimental data taken from patent US20070146686A1, “Non-invasive method to monitor microcirculation” (priority 2004, published 2007).
# System: skin
# Conditions: topical application on the skin; images at 0.5, 2, 5, 10 minutes following application; listed as methyl nicotineate amide
# Excerpt: Another way of administering the agent is by topical application on the skin. […] This agent is frequently used in skin testing for assessing the sensitivity of the skin.
# In this example a modern digital camera technology is utilized, exemplified by Canon IXUS V3, Canon Svenska AB, Solna, Sweden. […] In this approach a flash of white light—or alternatively continuous light—(A, FIG. 4) illuminates the skin (B, FIG. 4) under study after having been linearly polarized by a polarizer (C, FIG. 4) positioned in front of the flash lamp—or a lamp delivering continuous light—(D, FIG. 4). In the skin surface (E, FIG. 4), a fraction of the polarized light is directly reflected towards the camera aperture with essentially no change in polarization. […]
# At least two of the normalized data matrixes representing the different colors are then further processed to form an output data matrix (L, FIG. 4), where each value corresponds to the amount of vasodilatation in the actual source point in tissue. In this example, the algorithm generates an output data matrix of which each element is calculated by subtracting the green value from the red value and divides the difference by the sum of the red and the green value of each element of the normalized original data matrixes.
substance,measurement,value
methyl nicotinate amide,local vasodilatation in skin,Vasodilatation
